Assay results as given in ChEMBL document CHEMBL1201862, “PubChem BioAssay data set” (2004).
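How tested: cells in 96-well plates exposed to compound for 48 hours at five concentrations. GI50 is the concentration that inhibits growth by half.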 Calls of active or inactive are those of the source. Rule as the data show it: active = GI50 up to about 1.1 µM and inactive = higher.

Experiments:
Experiment in all cases: NCI-60 cell line screen, 48 h
[1] = tested on: ACHN
[2] = tested on: HCT-116
[3] = tested on: HCT-15
[4] = tested on: HOP-62
[5] = tested on: HOP-92
[6] = tested on: K562
[7] = tested on: KM-20L2
[8] = tested on: KM12
[9] = tested on: M14
[10] = tested on: Malme-3M
[11] = tested on: NCI-H23
[12] = tested on: NCI-H460
[13] = tested on: OVCAR-4
[14] = tested on: RXF 393
[15] = tested on: SF-539
[16] = tested on: SK-MEL-5
[17] = tested on: UACC-62
[18] = tested on: BT-549
[19] = tested on: DU-145
[20] = tested on: Hs-578T

Compound: CN(C)CCC(/C=C/c1ccccc1)=N\Nc1ccc(Cl)c(Cl)c1
- GI50 [1]: 1.92 µM (inactive)
- GI50 [2]: 3.56 µM (inactive)
- GI50 [3]: 3.6 µM
- GI50 [4]: 3.15 µM (inactive)
- GI50 [5]: 1.41 µM (inactive)
- GI50 [6]: 2.23 µM (inactive)
- GI50 [7]: 2.02 µM (inactive)
- GI50 [8]: 2.05 µM (inactive)
- GI50 [9]: 2.72 µM (inactive)
- GI50 [10]: 14.2 µM (inactive)
- GI50 [11]: 2.81 µM (inactive)
- GI50 [12]: 2.01 µM (inactive)
- GI50 [13]: 3.56 µM (inactive)
- GI50 [14]: 2.74 µM (inactive)
- GI50 [15]: 2.2 µM (inactive)
- GI50 [16]: 4.49 µM (inactive)
- GI50 [17]: 2.55 µM (inactive)

Compound: O=C(/C=C/c1ccc(Cl)cc1)c1ccncc1
- GI50 [1]: 35.9 µM (inactive)
- GI50 [2]: 62.2 µM (inactive)
- GI50 [3]: 44.5 µM
- GI50 [4]: 98.9 µM (inactive)
- GI50 [5]: > 100 µM (inactive)
- GI50 [6]: 52.2 µM (inactive)
- GI50 [7]: 35.9 µM (inactive)
- GI50 [8]: 26 µM (inactive)
- GI50 [9]: 36.1 µM (inactive)
- GI50 [10]: > 100 µM (inactive)
- GI50 [11]: > 100 µM (inactive)
- GI50 [12]: 59.7 µM (inactive)
- GI50 [13]: 22.5 µM (inactive)
- GI50 [14]: 21.4 µM (inactive)
- GI50 [15]: 25.9 µM (inactive)
- GI50 [16]: 53.2 µM (inactive)
- GI50 [17]: 76 µM (inactive)

Compound: Brc1ccccc1/C=N\C12CC3CC(CC(C3)C1)C2
- GI50 [1]: > 68.2 µM (inactive)
- GI50 [18]: > 100 µM (inactive)
- GI50 [19]: > 100 µM (inactive)
- GI50 [2]: 1.85 µM (inactive)
- GI50 [3]: 1.99 µM
- GI50 [4]: > 81.8 µM (inactive)
- GI50 [5]: 84.7 µM (inactive)
- GI50 [20]: > 64.6 µM (inactive)
- GI50 [6]: 1.02 µM (active)
- GI50 [7]: > 100 µM (inactive)
- GI50 [8]: > 100 µM (inactive)
- GI50 [9]: 28.1 µM (inactive)
- GI50 [10]: > 67.9 µM (inactive)
- GI50 [11]: > 65 µM (inactive)
- GI50 [12]: > 100 µM (inactive)
- GI50 [13]: > 100 µM (inactive)
- GI50 [14]: 97.9 µM (inactive)
- GI50 [15]: 15.5 µM (inactive)
- GI50 [16]: 51.6 µM (inactive)
- GI50 [17]: 12 µM (inactive)

Compound: N#CC(C(=O)C(=O)C(C#N)c1ccc(Br)cc1)c1ccc(Br)cc1 (stereo not drawn)
- GI50 [1]: 12.6 µM (inactive)
- GI50 [2]: 14.1 µM (inactive)
- GI50 [3]: 13.3 µM
- GI50 [4]: 13.2 µM (inactive)
- GI50 [5]: 13.3 µM (inactive)
- GI50 [6]: 12.6 µM (inactive)
- GI50 [7]: 12.2 µM (inactive)
- GI50 [8]: 10.6 µM (inactive)
- GI50 [9]: 14.2 µM (inactive)
- GI50 [10]: 13.6 µM (inactive)
- GI50 [11]: 3.91 µM (inactive)
- GI50 [12]: 16 µM (inactive)
- GI50 [13]: 12.3 µM (inactive)
- GI50 [14]: 4.26 µM (inactive)
- GI50 [15]: 15.5 µM (inactive)
- GI50 [16]: 14.4 µM (inactive)
- GI50 [17]: 1.51 µM (inactive)

Compound: CCCNCCCCC(NC(C)=O)C(=O)NCc1ccccc1 (stereo not drawn)
- GI50 [1]: > 100 µM (inactive)
- GI50 [2]: > 100 µM (inactive)
- GI50 [3]: > 100 µM
- GI50 [4]: > 100 µM (inactive)
- GI50 [5]: > 100 µM (inactive)
- GI50 [6]: > 100 µM (inactive)
- GI50 [7]: > 100 µM (inactive)
- GI50 [8]: > 100 µM (inactive)
- GI50 [9]: > 100 µM (inactive)
- GI50 [10]: > 100 µM (inactive)
- GI50 [11]: > 100 µM (inactive)
- GI50 [12]: > 100 µM (inactive)
- GI50 [13]: > 100 µM (inactive)
- GI50 [14]: > 100 µM (inactive)
- GI50 [15]: > 100 µM (inactive)
- GI50 [16]: > 100 µM (inactive)
- GI50 [17]: > 100 µM (inactive)

Compound: CS(=O)(=O)CS(=O)(=O)OCCCl
- GI50 [1]: 124 µM (inactive)
- GI50 [18]: 99.5 µM (inactive)
- GI50 [19]: 199 µM (inactive)
- GI50 [2]: 166 µM (inactive)
- GI50 [3]: 209 µM
- GI50 [4]: 43.3 µM (inactive)
- GI50 [5]: 119 µM (inactive)
- GI50 [20]: 272 µM (inactive)
- GI50 [6]: 216 µM (inactive)
- GI50 [7]: 565 µM (inactive)
- GI50 [8]: 339 µM (inactive)
- GI50 [9]: 191 µM (inactive)
- GI50 [10]: 356 µM (inactive)
- GI50 [11]: 143 µM (inactive)
- GI50 [12]: 83.6 µM (inactive)
- GI50 [13]: 403 µM (inactive)
- GI50 [14]: 163 µM (inactive)
- GI50 [15]: 50.4 µM (inactive)
- GI50 [16]: 211 µM (inactive)
- GI50 [17]: 29.5 µM (inactive)
